Read-outs that look alike come from different tables or passages of the source.
What was measured:
MOLM-13 cells = assay: Cell viability assay (CellTiter-Glo) in MOLM-13 cells, alone or with gilteritinib; assay type: cell-based; settings: Homo sapiens, MOLM-13 cells, three days, CellTiter-Glo
MV4;11 cells = assay: Cell viability assay (CellTiter-Glo) in MV4;11 cells, alone or with gilteritinib; assay type: cell-based; settings: MV4;11 cells, three days, CellTiter-Glo, read-out: MV4
[1] = MOLM-13, 72 h, compound alone (without gilteritinib), read-out: MOLM-13 IC50
[2] = MOLM-13, 72 h, with gilteritinib 20 nM, read-out: MOLM-13 IC50 gilteritinib
[3] = Homo sapiens, MV4-11, 72 h, compound alone (without gilteritinib), 11 IC50
[4] = Homo sapiens, MV4-11, 72 h, with gilteritinib 10 nM, 11 IC50 gilteritinib
[5] = MOLM-13, 72 h, compound with gilteritinib 20 nM, read-out: MOLM-13 IC50 gilteritinib
[6] = Homo sapiens, MV4-11, 72 h, compound with gilteritinib 10 nM, 11 IC50 gilteritinib

Compound | IC50 (MOLM-13 cells; [1]) [nM] | IC50 (MOLM-13 cells; [2]) [nM] | IC50 (MV4;11 cells; [3]) [nM] | IC50 (MV4;11 cells; [4]) [nM] | IC50 (MOLM-13 cells; [5]) [nM] | IC50 (MV4;11 cells; [6]) [nM] | IC50 (MV4;11 cells; compound alone (without gilteritinib), 11 IC50) [nM] | IC50 (MOLM-13 cells; 72 h, compound alone (without gilteritinib), read-out: MOLM-13 IC50) [nM] | IC50 (MOLM-13 cells; 72 h, with gilteritinib 20 nM, read-out: MOLM-13 IC50 gilteritinib) [nM] | IC50 (MV4;11 cells; Homo sapiens, 72 h, compound alone (without gilteritinib), 11 IC50) [nM] | IC50 (MV4;11 cells; Homo sapiens, 72 h, with gilteritinib 10 nM, 11 IC50 gilteritinib) [nM]
Cc1c(-c2cnc3ccccc3n2)cnn1[C@H]1C[C@@H](CCCNc2ccc3c(c2)C(=O)N(C2CCC(=O)NC2=O)C3=O)C1 (stereo partly drawn) [GS-169, 2-(2,6-Dioxopiperidin-3-yl)-5-((3-(cis-3-(5-methyl-4-(quinoxalin-2-yl)-1H-pyrazol-1-yl)cyclobutyl)propyl)amino)isoindoline-1,3-dione] | > 1000 | 10 to 100 | 100 to 1000 | > 1000 |  |  |  |  |  |  | 
O=C1CCC(N2C(=O)c3ccc(NCCCCCCn4cc(-c5cnc6cccc(Br)c6n5)cn4)cc3C2=O)C(=O)N1 (centres unmarked) [GS-315, 5-((6-(4-(8-Bromoquinoxalin-2-yl)-1H-pyrazol-1-yl)hexyl)amino)-2-(2,6-dioxopiperidin-3-yl)isoindoline-1,3-dione] | 100 to 1000 | 10 to 100 | 10 to 100 | < 10 |  |  |  |  |  |  | 
O=C1CCC(N2C(=O)c3ccc(NCCCCCC(=O)c4ccc(-n5cccn5)cc4)cc3C2=O)C(=O)N1 (centres unmarked) [GS-061, 5-((6-(4-(1H-Pyrazol-1-yl)phenyl)-6-oxohexyl)amino)-2-(2,6-dioxopiperidin-3-yl)isoindoline-1,3-dione] | > 1000 | 100 to 1000 | > 1000 | 100 to 1000 |  |  |  |  |  |  | 
CN1CCN(c2cccc(-c3cnn([C@H]4C[C@H](CCCNc5ccc6c(c5)C(=O)N(C5CCC(=O)NC5=O)C6=O)C4)c3)n2)CC1 (stereo partly drawn) [GS-245, 2-(2,6-Dioxopiperidin-3-yl)-5-((3-(trans-3-(4-(6-(4-methylpiperazin-1-yl)pyridin-2-yl)-1H-pyrazol-1-yl)cyclobutyl)propyl)amino)isoindoline-1,3-dione] | > 1000 | 100 to 1000 |  | 10 to 100 |  |  | > 1000 |  |  |  | 
O=C1CCC(N2C(=O)c3ccc(NC[C@H]4C[C@H](n5cc(-c6ccc(NC7CCNCC7)cn6)c(C6CC6)n5)C4)cc3C2=O)C(=O)N1 (stereo partly drawn) [GS-302, 5-(((trans-3-(3-Cyclopropyl-4-(5-(piperidin-4-ylamino)pyridin-2-yl)-1H-pyrazol-1-yl)cyclobutyl)methyl)amino)-2-(2,6-dioxopiperidin-3-yl)isoindoline-1,3-dione] | > 1000 | > 1000 | > 1000 | > 1000 |  |  |  |  |  |  | 
O=C1CCC(N2Cc3cc(OCCCCCC(=O)N4CCN(c5ccccc5)CC4)ccc3C2=O)C(=O)N1 (centres unmarked) [GS-329, 3-(1-Oxo-5-((6-oxo-6-(4-phenylpiperazin-1-yl)hexyl)oxy)isoindolin-2-yl)piperidine-2,6-dione] |  |  |  |  |  |  |  | > 1000 | 100 to 1000 | > 1000 | > 1000
O=C1CCC(N2C(=O)c3ccc(NCCC[C@H]4C[C@H](n5cc(-c6cnc7ccc(OC8CC8)cc7n6)cn5)C4)cc3C2=O)C(=O)N1 (stereo partly drawn) [GS-202, 5-((3-(trans-3-(4-(7-Cyclopropoxyquinoxalin-2-yl)-1H-pyrazol-1-yl)cyclobutyl)propyl)amino)-2-(2,6-dioxopiperidin-3-yl)isoindoline-1,3-dione] | 100 to 1000 | < 10 | 10 to 100 | < 10 |  |  |  |  |  |  | 
O=C1CCC(N2C(=O)c3ccc(NC[C@H]4C[C@H](n5cc(-c6cnc7ccccc7n6)c(C6CC6)n5)C4)cc3C2=O)C(=O)N1 (stereo partly drawn) [GS-579, 5-(((trans-3-(3-Cyclopropyl-4-(quinoxalin-2-yl)-1H-pyrazol-1-yl)cyclobutyl)methyl)amino)-2-(2,6-dioxopiperidin-3-yl)isoindoline-1,3-dione] | < 10 |  | < 10 |  | < 10 | < 10 |  |  |  |  | 
O=C1CCC(N2C(=O)c3ccc(CC[C@H]4C[C@H](n5cc(-c6cnc7ccccc7n6)c(C6CC6)n5)C4)cc3C2=O)C(=O)N1 (stereo partly drawn) [GS-627, 5-(2-(trans-3-(3-Cyclopropyl-4-(quinoxalin-2-yl)-1H-pyrazol-1-yl)cyclobutyl)ethyl)-2-(2,6-dioxopiperidin-3-yl)isoindoline-1,3-dione] | > 1000 |  | > 1000 |  | > 1000 | > 1000 |  |  |  |  | 
O=C1CCC(N2C(=O)c3ccc(NCCC[C@H]4C[C@H](n5cc(-c6cnc7ccc(CN8CCOCC8)cc7n6)cn5)C4)cc3C2=O)C(=O)N1 (stereo partly drawn) [GS-208, 2-(2,6-Dioxopiperidin-3-yl)-5-((3-(trans-3-(4-(7-(morpholinomethyl)quinoxalin-2-yl)-1H-pyrazol-1-yl)cyclobutyl)propyl)amino)isoindoline-1,3-dione] | 100 to 1000 | 10 to 100 | 100 to 1000 | 10 to 100 |  |  |  |  |  |  | 
O=C1CCC(N2Cc3cc(OCCCCCC(=O)N4CCC(n5cc(-c6cnc7ccccc7n6)cn5)CC4)ccc3C2=O)C(=O)N1 (centres unmarked) [GS-493, 3-(1-oxo-5-((6-oxo-6-(4-(4-(quinoxalin-2-yl)-1H-pyrazol-1-yl)piperidin-1-yl)hexyl)oxy)isoindolin-2-yl)piperidine-2,6-dione] | > 1000 |  | 10 to 100 |  | < 10 | < 10 |  |  |  |  | 
CN1CCN(c2ccnc(-c3cnn([C@H]4C[C@H](CNc5ccc6c(c5)C(=O)N(C5CCC(=O)NC5=O)C6=O)C4)c3)n2)CC1 (stereo partly drawn) [GS-424, 2-(2,6-dioxopiperidin-3-yl)-5-(((trans-3-(4-(4-(4-methylpiperazin-1-yl)pyrimidin-2-yl)-1H-pyrazol-1-yl)cyclobutyl)methyl)amino)isoindoline-1,3-dione] | 100 to 1000 |  | > 1000 |  | 10 to 100 | > 1000 |  |  |  |  | 

More lines, main results first:

IC50 (MOLM-13 cells; [1]) [nM] | IC50 (MOLM-13 cells; [2]) [nM] | IC50 (MV4;11 cells; [3]) [nM] | IC50 (MV4;11 cells; [4]) [nM] | IC50 (MOLM-13 cells; [5]) [nM] | IC50 (MV4;11 cells; [6]) [nM] | IC50 (MV4;11 cells; compound alone (without gilteritinib), 11 IC50) [nM] | Compound | IC50 (MOLM-13 cells; 72 h, compound alone (without gilteritinib), read-out: MOLM-13 IC50) [nM] | IC50 (MOLM-13 cells; 72 h, with gilteritinib 20 nM, read-out: MOLM-13 IC50 gilteritinib) [nM] | IC50 (MV4;11 cells; Homo sapiens, 72 h, compound alone (without gilteritinib), 11 IC50) [nM] | IC50 (MV4;11 cells; Homo sapiens, 72 h, with gilteritinib 10 nM, 11 IC50 gilteritinib) [nM]
> 1000 | 100 to 1000 | > 1000 | 100 to 1000 |  |  |  | O=C1CCC(N2C(=O)c3ccc(NCCNC(=O)N4CCC(n5cc(-c6cnc7ccccc7n6)cn5)CC4)cc3C2=O)C(=O)N1 (centres unmarked) [GS-149, N-(2-((2-(2,6-dioxopiperidin-3-yl)-1,3-dioxoisoindolin-5-yl)amino)ethyl)-4-(4-(quinoxalin-2-yl)-1H-pyrazol-1-yl)piperidine-1-carboxamide] |  |  |  | 
> 1000 | 10 to 100 | > 1000 | 100 to 1000 |  |  |  | O=C1CCC(N2C(=O)c3ccc(NCCC[C@H]4C[C@@H](n5cc(-c6cnc7ccccc7n6)cn5)C4)cc3C2=O)C(=O)N1 (stereo partly drawn) [GS-177, 2-(2,6-Dioxopiperidin-3-yl)-5-((3-(cis-3-(4-(quinoxalin-2-yl)-1H-pyrazol-1-yl)cyclobutyl)propyl)amino)isoindoline-1,3-dione] |  |  |  | 
> 1000 | 100 to 1000 | 100 to 1000 | 10 to 100 |  |  |  | O=C1CCC(N2C(=O)c3ccc(NCC45CC(C(=O)N6CCC(n7cc(-c8cnc9ccccc9n8)cn7)CC6)(C4)C5)cc3C2=O)C(=O)N1 (centres unmarked) [GS-144, 2-(2,6-Dioxopiperidin-3-yl)-5-(((3-(4-(4-(quinoxalin-2-yl)-1H-pyrazol-1-yl)piperidine-1-carbonyl)bicyclo[1.1.1]pentan-1-yl)methyl)amino)isoindoline-1,3-dione] |  |  |  | 
10 to 100 |  | 10 to 100 |  | < 10 | 10 to 100 |  | O=C1CCC(N2C(=O)c3ccc(NCCCCCCn4cc(-c5cnc6ccc(C7CC7)cc6n5)cn4)cc3C2=O)C(=O)N1 (centres unmarked) [GS-562, 5-((6-(4-(7-Cyclopropylquinoxalin-2-yl)-1H-pyrazol-1-yl)hexyl)amino)-2-(2,6-dioxopiperidin-3-yl)isoindoline-1,3-dione] |  |  |  | 
100 to 1000 | < 10 | 100 to 1000 | 10 to 100 |  |  |  | O=C1CCC(N2C(=O)c3ccc(NCCCC(F)(F)C(=O)N4CCC(n5cc(-c6cnc7ccccc7n6)cn5)CC4)cc3C2=O)C(=O)N1 (centres unmarked) [GS-145, 5-((4,4-Difluoro-5-oxo-5-(4-(4-(quinoxalin-2-yl)-1H-pyrazol-1-yl)piperidin-1-yl)pentyl)amino)-2-(2,6-dioxopiperidin-3-yl)isoindoline-1,3-dione] |  |  |  | 
> 1000 |  | > 1000 |  | > 1000 | > 1000 |  | O=C1CCC(N2C(=O)c3ccc(NCCC[C@H]4C[C@H](n5cc(C6CCOCC6)cn5)C4)cc3C2=O)C(=O)N1 (stereo partly drawn) [GS-433, 2-(2,6-dioxopiperidin-3-yl)-5-((3-(trans-3-(4-(tetrahydro-2H-pyran-4-yl)-1H-pyrazol-1-yl)cyclobutyl)propyl)amino)isoindoline-1,3-dione] |  |  |  | 
10 to 100 | < 10 | < 10 | < 10 |  |  |  | O=C1CCC(N2C(=O)c3ccc(NC[C@H]4C[C@H](n5cc(-c6nccc7ncccc67)c(C6CC6)n5)C4)cc3C2=O)C(=O)N1 (stereo partly drawn) [GS-281, 5-(((trans-3-(3-Cyclopropyl-4-(1,6-naphthyridin-5-yl)-1H-pyrazol-1-yl)cyclobutyl)methyl)amino)-2-(2,6-dioxopiperidin-3-yl)isoindoline-1,3-dione] |  |  |  | 
100 to 1000 | 10 to 100 | 10 to 100 | < 10 |  |  |  | CCc1cccc(-c2cn([C@H]3C[C@H](CNc4ccc5c(c4)C(=O)N(C4CCC(=O)NC4=O)C5=O)C3)nc2C2CC2)n1 (stereo partly drawn) [GS-069, 5-(((trans-3-(3-Cyclopropyl-4-(6-ethylpyridin-2-yl)-1H-pyrazol-1-yl)cyclobutyl)methyl)amino)-2-(2,6-dioxopiperidin-3-yl)isoindoline-1,3-dione] |  |  |  | 
